Patent US20130259842A1, “STABLE REPROGRAMMED CELLS” (priority 2010, published 2013)

Tested on: piPSC lines
Assay: Chemical reprogramming of stable intermediate cell lines
Type: cell-based, mouse
Procedure: A subset of piPS cell lines were treated with RepSox (E-616452) (25 μM), AZA (500 μM), or both for 48 hours. For 2i treatment, CHIR99021 (Stemgent) was used at 3 μM and PD0325901 (Stemgent) was used at 1 μM. Oct4::GFP+ colonies were scored 12 days after the beginning of chemical treatment. Treatments were performed in mES media containing FBS unless otherwise noted.
10× bright field image merged with Oct4::GFP. The concentration of DMSO equals 0.2%.
piPSC or iPSC were plated on irradiated feeders or 0.1% gelatin, and grown in mES media treated with RepSox (E-616452) (25 μM), AZA (500 μM), or both for 48 hours. For 2i treatment, CHIR99021 (Stemgent) was used at 3 μM and PD0325901 (Stemgent) was used at 1 μM. Oct4::GFP+ colonies were scored 12 days after the beginning of chemical treatment. Treatments were performed in mES media containing FBS unless otherwise noted.
To examine whether multiple piPSC lines could be further reprogrammed to a fully pluripotent state, piPSC were cultured in the presence of RepSox, a known inhibitor of Tgf-β signalling previously described to reprogram intermediate cells (Ichida et al., 2009), 2i-treatment, combined chemical inhibition of Mek/Erk and GSK3 signaling (Silva et at, 2008), or the DNA methyl-transferase inhibitor 5′AzaC.

In the case of `Cc1cccc(-c2[nH]ncc2-c2ccc3ncccc3n2)n1` [RepSox], the “reprogramming scored by presence of Oct4::GFP positive colonies” value (25 μM RepSox, 2i = CHIR99021 3 μM + PD0325901 1 μM, exposed 48 hours, scored 12 days later) is reported as “a subset of piPSC lines reprogram” and the “further reprogramming to fully reprogrammed iPS cells as determined by the expression of Nanog” value (25 μM for 48 hours, piPSC lines D, F, G, and E, Nanog RT-PCR at 96 hours) is reported as “underwent further reprogramming to fully reprogrammed iPS cells”.
